Values after ≈ are worked out from the molar mass of the structure shown.
Experiments:
PC-3 (prostate cancer) = test: Solid tumor cell growth inhibition, MTT, 72 h (Example 7); type: cell-based, human; details: Homo sapiens; 72 h, MTT, PC-3
Procedure: (§1) Human solid tumor cell lines: Hep-2 (laryngeal carcinoma), A549 (human lung cancer), CaES-17 (esophageal cancer cell), PC-3 (prostate cancer), CNE (nasopharyngeal carcinoma cell) and SK-OV-3 (ovarian cancer cell), all of which are purchased from China Center For Type Culture Collection; RKO (human colon adenocarcinoma cell), MGC 803 (human gastric cancer cell), MG63 (osteosarcoma), and U87 MG (malignant glioma cell), all of which are purchased from Fuxiang Bio-tech Co. Ltd., Shanghai, China; PANC-1 (pancreatic cancer), Huh? (human liver cancer cell), Becap37 (human breast cancer cell), and Hela (human cervical cancer cell), all of which are donated by Cancer Research Institute of Zhejiang University, China.
(§2) Reagents: the same as in Example 5.
(§3) Obtaining 4000 well-growing human solid tumor cells and inoculating them into wells of a 96-well cell culture plate. The culture medium is DMEM High Glucose cell culture medium containing 10% fetal bovine serum. The plate is placed in a carbon dioxide cell incubator (5% CO2) at 37° C. and incubated for 24 hours. After been added with tetrandrine derivatives of different concentration and mixing uniformly, the plate is placed in a carbon dioxide cell incubator (5% CO2) at 37° C. and incubated for 72 hours. Then the viable cell concentration is determined by the MTT method and the cell viability (%) after drug treatment is calculated. In this experiment, the cell viability of control group (not treated with any compound) is set as 100%.

MG63 (osteosarcoma) = test: as above; type: cell-based, human; details: Homo sapiens; 72 h, MTT, MG-63
Procedure: as §1, §2, §3

[1] = tested on: PANC-1 (pancreatic cancer); test: as above; type: cell-based, human; details: Homo sapiens; 72 h, MTT, PANC-1
Procedure: as §1, §2, §3

[2] = tested on: CaES-17 (esophageal cancer cell); test: as above; type: cell-based, human; details: Homo sapiens, CaEs17; 72 h, MTT, CAES-17
Procedure: as §1, §2, §3

[3] = tested on: RPMI8226 (multiple myeloma); test: Multiple myeloma cell growth inhibition, MTT, 72 h (Example 6); type: cell-based, human; details: Homo sapiens, RPMI-8226; 72 h, MTT, RPMI8226
Procedure: Multiple myeloma and lymphoma cell lines: RPMI8226 (multiple myeloma), purchased from Fuxiang Bio-tech Co. Ltd., Shanghai, China.
as §2
(§4) Obtaining 6000 well-growing leukemia cells and inoculating them into wells of a 96-well cell culture plate. The culture medium is a 1640 cell culture medium containing 10% fetal bovine serum. After adding the tetrandrine derivatives of different concentrations and mixing uniformly, placing the plate in a carbon dioxide cell incubator (5% CO2) at 37° C. and incubated for 72 hours. Then the viable cell concentration is determined by the MTT method.

[4] = tested on: K562/adr (drug-resistant, chronic myeloid leukemia, CML); test: Leukemia cell growth inhibition, MTT, 72 h (Example 5); type: cell-based, human; details: Homo sapiens, K562/Adr; 72 h, MTT
From the text: (§5) Leukemia cell lines: leukemia cell lines: K562/adr (drug-resistant, chronic myeloid leukemia, CML), NB4 (acute promyelocytic leukemia, AML), Kasumi-1 (acute myeloid leukemia M2 type, AML-M2), Jurkat (acute lymphoblastic leukemia, ALL), all of which are donated by Cancer Research Institute of Zhejiang University, China; and H9 (acute lymphoblastic leukemia, ALL), which is purchased from China Center for Type Culture Collection.
(§6) Reagents: The standard sample of tetrandrine (TTD) is purchased from Ci Yuan Biotechnology Co., Ltd., Shaanxi, China; and the 5-substituted tetrandrine derivatives of the present invention.
as §4, with “incubating” for “incubated”

[5] = tested on: Jurkat (acute lymphoblastic leukemia, ALL); test: as above; type: cell-based, human; details: Homo sapiens, Jurkat; 72 h, MTT
From the text: as §5, §6
as §4, with “incubating” for “incubated”

[6] = tested on: H9 (acute lymphoblastic leukemia, ALL); test: as above; type: cell-based, human; details: Homo sapiens; 72 h, MTT
From the text: as §5, §6
as §4, with “incubating” for “incubated”

[7] = tested on: Kasumi-1 (acute myeloid leukemia M2 type, AML-M2); test: as above; type: cell-based, human; details: Homo sapiens, Kasumi 1
From the text: as §5, §6
as §4, with “incubating” for “incubated”

[8] = tested on: Huh7 (human liver cancer cell); test: Solid tumor cell growth inhibition, MTT, 72 h (Example 7); type: cell-based; details: Homo sapiens; 72 h, MTT, Huh-7
Procedure: as §1, §2, §3

A549 (human lung cancer) = test: as above; type: cell-based; details: Homo sapiens; 72 h, MTT, A549
Procedure: as §1, §2, §3

[9] = tested on: Becap37 (human breast cancer cell); test: as above; type: cell-based; details: Homo sapiens; 72 h, MTT, Becap-37
Procedure: as §1, §2, §3

[10] = tested on: MGC 803 (human gastric cancer cell); test: as above; type: cell-based; details: Homo sapiens
Procedure: as §1, §2, §3

Compound | IC50 (PC-3 (prostate cancer)) [µg/mL] | IC90 (PC-3 (prostate cancer)) [µg/mL] | IC50 (MG63 (osteosarcoma)) [µg/mL] | IC90 (MG63 (osteosarcoma)) [µg/mL] | IC50 [1] [µg/mL] | IC90 [1] [µg/mL] | IC50 [2] [µg/mL] | IC90 [2] [µg/mL] | IC50 [3] [µg/mL] | IC90 [3] [µg/mL] | IC50 [4] [µg/mL] | IC90 [4] [µg/mL] | IC50 [5] [µg/mL] | IC90 [5] [µg/mL] | IC50 [6] [µg/mL] | IC90 [6] [µg/mL] | IC50 [7] [µg/mL] | IC90 [7] [µg/mL] | IC50 [8] [µg/mL] | IC90 [8] [µg/mL] | other results
COc1ccc2cc1Oc1ccc(cc1)C[C@H]1c3cc(c(OC)cc3CCN1C)Oc1c(OC)c(OC)c(COCC3CCOC3)c3c1[C@H](C2)N(C)CC3 (some centres unmarked) [BS-TE-417] | 4.1 (≈ 5.56 µM) | 7.91 (≈ 10.7 µM) | 1.06 (≈ 1.44 µM) | 3.66 (≈ 4.97 µM) | 4.66 (≈ 6.32 µM) | 9.5 (≈ 12.9 µM) | 2.04 (≈ 2.77 µM) | 12 (≈ 16.3 µM) | 0.27 (≈ 0.366 µM) | 2 (≈ 2.71 µM) | 0.88 (≈ 1.19 µM) | 4.63 (≈ 6.28 µM) | 3.64 (≈ 4.94 µM) | 12.1 (≈ 16.5 µM) | 2.03 (≈ 2.75 µM) | 4.37 (≈ 5.93 µM) | 1.8 (≈ 2.44 µM) | 9.69 (≈ 13.1 µM) | 2.48 (≈ 3.37 µM) | 3.76 (≈ 5.1 µM) | IC50 (A549 (human lung cancer)): 3.88 µg/mL (≈ 5.27 µM); IC90 (A549 (human lung cancer)): 10.1 µg/mL (≈ 13.7 µM); IC50 [9]: 1.77 µg/mL (≈ 2.4 µM); IC90 [9]: 3.79 µg/mL (≈ 5.14 µM); IC50 [10]: 5.09 µg/mL (≈ 6.91 µM); IC90 [10]: 8.27 µg/mL (≈ 11.2 µM)
COc1ccc2cc1Oc1ccc(cc1)C[C@H]1c3cc(c(OC)cc3CCN1C)Oc1c(OC)c(OC)c(COCCn3ccnc3)c3c1[C@H](C2)N(C)CC3 [BS-TE-418] | 4.98 (≈ 6.67 µM) | 9.43 (≈ 12.6 µM) | 1.48 (≈ 1.98 µM) | 4.45 (≈ 5.96 µM) | 4.57 (≈ 6.12 µM) | 9.5 (≈ 12.7 µM) | 1.71 (≈ 2.29 µM) | 9.9 (≈ 13.3 µM) | 0.15 (≈ 0.201 µM) | 2.12 (≈ 2.84 µM) | 1.53 (≈ 2.05 µM) | 3.91 (≈ 5.23 µM) | 2.98 (≈ 3.99 µM) | 13.8 (≈ 18.5 µM) | 2.38 (≈ 3.19 µM) | 5 (≈ 6.69 µM) | 1.46 (≈ 1.95 µM) | 7.46 (≈ 9.99 µM) | 3.08 (≈ 4.12 µM) | 5.77 (≈ 7.73 µM) | IC50 (A549 (human lung cancer)): 4.5 µg/mL (≈ 6.02 µM); IC90 (A549 (human lung cancer)): 11 µg/mL (≈ 14.8 µM); IC50 [9]: 1.98 µg/mL (≈ 2.65 µM); IC90 [9]: 4.4 µg/mL (≈ 5.89 µM); IC50 [10]: 4.4 µg/mL (≈ 5.89 µM); IC90 [10]: 6.85 µg/mL (≈ 9.17 µM)
CCOCc1c2c3c(c(OC)c1OC)Oc1cc4c(cc1OC)CCN(C)[C@H]4Cc1ccc(cc1)Oc1cc(ccc1OC)C[C@@H]3N(C)CC2 [BS-TE-419] | 6.67 (≈ 9.8 µM) | 10.5 (≈ 15.4 µM) | 3.07 (≈ 4.51 µM) | 9.69 (≈ 14.2 µM) | 5.99 (≈ 8.8 µM) | 9.31 (≈ 13.7 µM) | 4.98 (≈ 7.31 µM) | 18.4 (≈ 27.1 µM) | 0.28 (≈ 0.411 µM) | 2.09 (≈ 3.07 µM) | 1.42 (≈ 2.09 µM) | 5.71 (≈ 8.39 µM) | 4.18 (≈ 6.14 µM) | 10.3 (≈ 15.2 µM) | 4.64 (≈ 6.82 µM) | 7.26 (≈ 10.7 µM) | 3.62 (≈ 5.32 µM) | 11.8 (≈ 17.4 µM) | 2.54 (≈ 3.73 µM) | 6.16 (≈ 9.05 µM) | IC50 (A549 (human lung cancer)): 5.61 µg/mL (≈ 8.24 µM); IC90 (A549 (human lung cancer)): 9.75 µg/mL (≈ 14.3 µM); IC50 [9]: 4.22 µg/mL (≈ 6.2 µM); IC90 [9]: 6.88 µg/mL (≈ 10.1 µM); IC50 [10]: 5.16 µg/mL (≈ 7.58 µM); IC90 [10]: 7.5 µg/mL (≈ 11 µM)
COCc1c2c3c(c(OC)c1OC)Oc1cc4c(cc1OC)CCN(C)[C@H]4Cc1ccc(cc1)Oc1cc(ccc1OC)C[C@@H]3N(C)CC2 [BS-TE-420] | 5.68 (≈ 8.52 µM) | 10.9 (≈ 16.4 µM) | 2.72 (≈ 4.08 µM) | 9.89 (≈ 14.8 µM) | > 10 | > 10 | 4.72 (≈ 7.08 µM) | 18.9 (≈ 28.4 µM) | 0.29 (≈ 0.435 µM) | 2.25 (≈ 3.37 µM) | 0.82 (≈ 1.23 µM) | 3.85 (≈ 5.77 µM) | 5.21 (≈ 7.81 µM) | 16 (≈ 24 µM) | 4.4 (≈ 6.6 µM) | 7.68 (≈ 11.5 µM) | 2.16 (≈ 3.24 µM) | 9.83 (≈ 14.7 µM) | 4.22 (≈ 6.33 µM) | 7.06 (≈ 10.6 µM) | IC50 (A549 (human lung cancer)): 4.41 µg/mL (≈ 6.61 µM); IC90 (A549 (human lung cancer)): 12.2 µg/mL (≈ 18.3 µM); IC50 [9]: 5.6 µg/mL (≈ 8.4 µM); IC90 [9]: 11.5 µg/mL (≈ 17.2 µM); IC50 [10]: 5.01 µg/mL (≈ 7.51 µM); IC90 [10]: 7.56 µg/mL (≈ 11.3 µM)

— US9133207B2, “Tetrandrine derivatives with substituted 5-carbon, preparation method and use thereof” (Hangzhou Bensheng Pharmaceutical Co., Ltd., priority 2011, dated 2015)
